≈ marks a conversion by molar mass, not a printed value.
system: T. mentagrophytes (TIMM1189); assay: Antifungal Activity Test (Measurement of Minimum Inhibitory Concentration); type: cell-based; settings: Trichophyton mentagrophytes, 168 h, Sabouraud dextrose broth, 27° C., 1 week, visual determination, read-out: MIC (minimum concentration at which growth was completely inhibited)
Description: Antifungal activities of compounds according to the present invention against Trichophyton sp. were determined. Described specifically, T. mentagrophytes (TIMM1189) was cultured at 27° C. for 2 weeks on Sabouraud dextrose agar slants in advance, whereby it was allowed to form sufficient conidia. The conidia were washed in a sterilized physiological saline, which contained Tween 80 at a concentration of 0.05 wt./vol. %, by rubbing the conidia with a platinum loop, whereby the conidia were suspended. The suspension was filtered through a double-layer gauze so that only the conidia were collected in a form suspended in the physiological saline. The suspension was diluted to adjust the concentration of conidia to 1×10^5 conidia/ml, whereby a test fungus solution was obtained. Meanwhile, 4 mg of one of the test compounds were taken, to which 1 ml of dimethyl sulfoxide was added to prepare a stock. The stock was subjected to doubling dilution with ethanol to prepare diluted drug solutions. To each well of a 96-well microplate for tissue culture, 175 μl of Sabouraud dextrose broth, 5 μl of the corresponding drug solution and 20 μl of the test fungus solution were added. Subsequent to thorough mixing, the fungus strain was cultured at 27° C. for 1 week.

Row | SMILES | MIC [µg/mL]
1 | CN(Cc1ccc(C(C)(C)C)cc1)Cc1ccccc1-c1ccccc1 [Compound 1, 4-tert-butyl-N-methyl-N-(2-phenylbenzyl)benzylamine] | 12.5 (≈ 36.4 µM)
2 | CN(Cc1ccc(C(C)(C)C)cc1)C(c1ccccc1)c1ccccc1 [Compound 4, 4-tert-butyl-N-diphenylmethyl-N-methylbenzylamine] | 100 (≈ 291 µM)
3 | CN(C/C=C/C#CC(C)(C)C)Cc1ccccc1-c1ccccc1 [Compound 5, trans-N-(6,6-dimethyl-2-hepten-4-yn-1-yl)-N-methyl-2-phenylbenzylamine] | 12.5 (≈ 39.4 µM)
4 | CN(Cc1ccc(-c2ccccc2)cc1)Cc1ccc(C(C)(C)C)cc1 [Compound 3, 4-tert-butyl-N-methyl-N-(4-phenylbenzyl)benzylamine] | 12.5 (≈ 36.4 µM)
5 | CN(Cc1ccc(C(C)(C)C)cc1)Cc1cccc(-c2ccccc2)c1 [Compound 2, 4-tert-butyl-N-methyl-N-(3-phenylbenzyl)benzylamine] | 25 (≈ 72.8 µM)

Next, values leading:

Row | MIC [µg/mL] | SMILES
6 | 12.5 (≈ 39.4 µM) | CN(C/C=C/C#CC(C)(C)C)Cc1ccc(-c2ccccc2)cc1 [Compound 9, trans-N-(6,6-dimethyl-2-hepten-4-yn-1-yl)-N-methyl-4-phenylbenzylamine]
7 | 100 (≈ 315 µM) | CN(CC=CC#CC(C)(C)C)C(c1ccccc1)c1ccccc1 [Compound 11, N-(6,6-dimethyl-2-hepten-4-yn-1-yl)-N-methyl(diphenylmethyl)amine]
8 | 12.5 (≈ 39.4 µM) | CN(C/C=C\C#CC(C)(C)C)Cc1cccc(-c2ccccc2)c1 [Compound 8, cis-N-(6,6-dimethyl-2-hepten-4-yn-1-yl)-N-methyl-3-phenylbenzylamine]
9 | 100 (≈ 315 µM) | CN(C/C=C\C#CC(C)(C)C)Cc1ccccc1-c1ccccc1 [Compound 6, cis-N-(6,6-dimethyl-2-hepten-4-yn-1-yl)-N-methyl-2-phenylbenzylamine]
10 | 12.5 (≈ 39.4 µM) | CN(C/C=C/C#CC(C)(C)C)Cc1cccc(-c2ccccc2)c1 [Compound 7, trans-N-(6,6-dimethyl-2-hepten-4-yn-1-yl)-N-methyl-3-phenylbenzylamine]
